Where a name gives a salt, the structure may show the parent alone. Read-outs that look alike come from different tables or passages of the source.

For assay [1], the system named is leukotriene pathway in human whole blood (LTB4 levels). The experiment in a line: Human whole blood assay (A23187-stimulated LTB4). The assay is classed as cell-based. The settings on record: Homo sapiens, read-out: LTB4 IC50 1:1. Put shortly:
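Single-replicate data from at least one healthy donor: compound pre-incubated 15 min at 37° Celsius in 1:1 RPMI-diluted heparinised blood, followed by 30 min calcium ionophore A23187 (7 μg/mL) challenge at 37° Celsius. LTB4 in plasma quantified by kit; IC50 via 4-parameter equation.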

In another assay the target is human FLAP (Homo sapiens (Human), UniProt P20292). Description: FLAP binding assay (HTRF format). Put shortly: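 Samples were run in duplicate on each of two assay plates, the results were averaged, and the signal was expressed as an HTRF ratio.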
The mark [2] stands for this setting: human whole blood diluted 1:1, A23187-stimulated.
The mark [3] stands for this setting: human whole blood diluted 1:1 in RPMI, A23187-stimulated LTB4.
Where [4] appears, read: human FLAP wild type, HTRF format, average of two plates, duplicates.

human FLAP, sequence (P20292 whole entry): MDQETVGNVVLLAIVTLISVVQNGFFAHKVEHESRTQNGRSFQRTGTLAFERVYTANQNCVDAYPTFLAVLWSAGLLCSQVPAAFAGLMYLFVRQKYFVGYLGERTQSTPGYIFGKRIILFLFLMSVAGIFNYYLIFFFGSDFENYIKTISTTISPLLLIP

Broadly, the IC50 is the concentration that gives 50% inhibition. A word on the Ki: it is a dissociation constant, usually derived from enzyme kinetics or from competition with a known ligand. As to `Nc1ncc(-c2ccc(-c3ccccc3S(=O)(=O)N3CCCCCC3)cn2)cn1` [Example 681, 5-{5-[2-(Azepan-1-ylsulfonyl)phenyl]pyridin-2-yl}pyrimidin-2-amine trifluoroacetic acid salt], in assay [1] (setting [2]), the IC50 came out at 106 nM. This compound also came in with a Ki on human FLAP (wild type FLAP, HTRF format) of 52.2 nM.
Turning to `Nc1cnc(-c2ccc(-c3ccccc3C(=O)N3CCS(=O)(=O)CC3)cc2F)cn1` [Example 509, 5-{2′-[(1,1-Dioxidothiomorpholin-4-yl)carbonyl]-3-fluorobiphenyl-4-yl}pyrazin-2-amine], the IC50 in assay [1] (setting [2]) stood at 93 nM. The Ki on human FLAP (wild type FLAP, HTRF format) worked out at 147 nM.
In the case of `Nc1cnc(-c2ccc(-c3ccccc3S(=O)(=O)N3CCS(=O)(=O)CC3)cc2F)cn1` [Example 45, 5-{2′-[(1,1-Dioxidothiomorpholin-4-yl)sulfonyl]-3-fluorobiphenyl-4-yl}pyrazin-2-amine], in assay [1] (setting [3]), the IC50 is 10 nM. The compound also showed a Ki on human FLAP (setting [4]) of 3 nM.
Consider `CN(C)C1CCN(S(=O)(=O)c2ccccc2-c2ccc(-c3cnc(N)cn3)c(F)c2)CC1` [Example 73, 5-(2′-{[4-(Dimethylamino)piperidin-1-yl]sulfonyl}-3-fluorobiphenyl-4-yl)pyrazin-2-amine], for which the IC50 in assay [1] (setting [3]) is 77 nM. In addition, the affinity at human FLAP (setting [4]), expressed as Ki, was 62 nM.
On to `CC(C)(C)C(=O)Nc1ncccc1-c1ccc(-c2cnc3[nH]ccc3c2)c(F)c1` [Example 802, N-{3-[3-Fluoro-4-(1H-pyrrolo[2,3-b]pyridin-5-yl)phenyl]pyridin-2-yl}-2,2-dimethylpropanamide], for which the half-maximal inhibitory concentration (IC50) in assay [1] (setting [2]) amounted to 0.994 nM. For the same compound, the inhibition constant (Ki) on human FLAP (wild type FLAP, HTRF format) is over 10000 nM.
For the compound `CC(C)S(=O)(=O)c1ncccc1-c1ccc(-c2cnc(N)nc2)c(F)c1` [Example 825, 5-(2-Fluoro-4-{2-[(1-methylethyl)sulfonyl]pyridin-3-yl}phenyl)pyrimidin-2-amine], the IC50 in assay [1] (setting [2]) was 122 nM. Further, the affinity on human FLAP (wild type FLAP, HTRF format), expressed as Ki, was 273 nM.
For `N#CCOc1ccccc1-c1ccc(-c2cnc(N)cn2)c(F)c1` [Example 642, {[4′-(5-Aminopyrazin-2-yl)-3′-fluorobiphenyl-2-yl]oxy}acetonitrile], the IC50 in assay [1] (setting [2]) is 981 nM. Moreover, on human FLAP (wild type FLAP, HTRF format), the Ki is 78.8 nM.
Take `Nc1cc(Sc2ccccc2-c2ccc(-c3cnc(N)nc3)c(F)c2)ncn1` [Example 334, 5-{2′-[(6-Aminopyrimidin-4-yl)sulfanyl]-3-fluorobiphenyl-4-yl}pyrimidin-2-amine formate salt]: in assay [1] (setting [3]), the IC50 was 67 nM. On human FLAP (setting [4]), this compound yielded a Ki of 12 nM.
With `N#Cc1cccc(Oc2ccccc2-c2ccc(-c3cnc(N)cn3)c(F)c2)n1` [Example 619, 6-{[4′-(5-Aminopyrazin-2-yl)-3′-fluorobiphenyl-2-yl]oxy}pyridine-2-carbonitrile], the half-maximal inhibitory concentration (IC50) in assay [1] (setting [2]) was found to be 45.1 nM. Affinity on human FLAP (wild type FLAP, HTRF format) was put at a Ki of 3.4 nM.
Consider `Nc1cnc(-c2ccc(-c3ccccc3Oc3cccc(C(F)(F)F)n3)cc2F)cn1` [Example 625, 5-(3-Fluoro-2′-{[6-(trifluoromethyl)pyridin-2-yl]oxy}biphenyl-4-yl)pyrazin-2-amine], for which, in assay [1] (setting [2]), the IC50 worked out at 173 nM. Affinity at human FLAP (wild type FLAP, HTRF format) was put at a Ki of 7.8 nM.
With `Nc1ncc(-c2ccc(-c3ccccc3S(=O)(=O)N[C@@H](c3ccccc3)C(F)(F)F)cc2F)cn1` [Example 292, 4′-(2-Aminopyrimidin-5-yl)-3′-fluoro-N-[(1S)-2,2,2-trifluoro-1-phenylethyl]biphenyl-2-sulfonamide trifluoroacetic acid salt], the IC50 in assay [1] (setting [3]) came to 1030 nM. Also, the Ki on human FLAP (read-out: FLAP Binding wild type HTRF Ki) was 12 nM.
Turning to `CS(=O)(=O)c1ccccc1-c1ccc(-c2cnc3c(c2)OCCN3)c(F)c1` [Example 385, 7-[3-Fluoro-2′-(methylsulfonyl)biphenyl-4-yl]-3,4-dihydro-2H-pyrido[3,2-b][1,4]oxazine], the IC50 in assay [1] (setting [3]) was determined as 1080 nM. The Ki at human FLAP (setting [4]) amounted to 42 nM.
`Nc1cnc(-c2ccc(-c3ccccc3S(=O)(=O)N3CCCC3)cc2F)cn1` [Example 48, 5-[3-Fluoro-2′-(pyrrolidin-1-ylsulfonyl)biphenyl-4-yl]pyrazin-2-amine]: the IC50 in assay [1] (setting [3]) worked out at 158 nM. Also, the Ki at human FLAP (setting [4]) is 11 nM.
Take `Nc1ncc(-c2ccc(-c3ccccc3S(=O)(=O)NC(C3CC3)C3CC3)cn2)cn1` [Example 684, 2-[6-(2-Aminopyrimidin-5-yl)pyridin-3-yl]-N-(dicyclopropylmethyl)benzenesulfonamide trifluoroacetic acid salt]: in assay [1] (setting [2]), the IC50 came to 134 nM. On human FLAP (wild type FLAP, HTRF format), this compound displayed a Ki of 46.3 nM.
For `CC(C)(C)NS(=O)(=O)c1ccccc1-c1ccc(-c2cn3c(N)cccc3n2)c(F)c1` [Example 581, 4′-(5-Aminoimidazo[1,2-a]pyridin-2-yl)-N-tert-butyl-3′-fluorobiphenyl-2-sulfonamide], in assay [1] (setting [2]), the IC50 came out at 2820 nM. On human FLAP (wild type FLAP, HTRF format), this compound registered a Ki of 60 nM.
As for `Nc1cnc(-c2ccc(-c3ccccc3S(=O)(=O)N[C@H]3CCCC[C@@H]3O)cc2F)cn1` [Example 162, 4′-(5-Aminopyrazin-2-yl)-3′-fluoro-N-((1S,2S)-2-hydroxycyclohexyl)-[1,1′-biphenyl]-2-sulfonamide], the IC50 in assay [1] (setting [3]) is 122 nM. For the same compound, at human FLAP (setting [4]), the affinity corresponds to a Ki of 5 nM.
Regarding `C[C@H](NC(=O)c1ccccc1-c1ccc(-c2cnc(N)cn2)c(F)c1)C(F)(F)F` [Example 505, 4′-(5-Aminopyrazin-2-yl)-3′-fluoro-N-[(1S)-2,2,2-trifluoro-1-methylethyl]biphenyl-2-carboxamide], in assay [1] (setting [2]), the IC50 was 71 nM. Affinity at human FLAP (wild type FLAP, HTRF format) was put at a Ki of 18 nM.
For the compound `Nc1cnc(-c2ccc(-c3ccccc3NS(=O)(=O)C(F)(F)F)cc2F)cn1` [Example 41, [4′-(5-Aminopyrazin-2-yl)-3′-fluorobiphenyl-2-yl]-1,1,1-trifluoromethanesulfonamide], the IC50 in assay [1] (setting [3]) was 2690 nM. In addition, the Ki on human FLAP (setting [4]) is 14 nM.
Take `Nc1ncc(-c2ccc(-c3ccc(C(F)(F)F)cc3C(=O)N3CCS(=O)(=O)CC3)cc2F)cn1` [Example 793, [2-[4-(2-Aminopyrimidin-5-yl)-3-fluoro-phenyl]-5-(trifluoromethyl)phenyl]-(1,1-dioxo-1,4-thiazinan-4-yl)methanone]: in assay [1] (setting [2]), the half-inhibitory concentration (IC50) was 642 nM. Besides, the Ki at human FLAP (wild type FLAP, HTRF format) turned out to be 280 nM.
In the case of `Nc1cnc(-c2ccc(-c3ccccc3S(=O)(=O)N3CCN(C(=O)C4CC4)CC3)cc2F)cn1` [Example 58, 5-(2′-{[4-(Cyclopropylcarbonyl)piperazin-1-yl]sulfonyl}-3-fluorobiphenyl-4-yl)pyrazin-2-amine], in assay [1] (setting [3]), the 50% inhibitory concentration (IC50) was 991 nM. Moreover, the affinity at human FLAP (setting [4]) corresponds to a Ki of 5 nM.
In the case of `Fc1cc(-c2ccccc2Oc2ncccn2)ccc1-c1cnc2[nH]cnc2c1` [Example 544, 6-[3-Fluoro-2′-(pyrimidin-2-yloxy)biphenyl-4-yl]-3H-imidazo[4,5-b]pyridine], the IC50 in assay [1] (setting [2]) was 1650 nM. The compound further had a Ki at human FLAP (wild type FLAP, HTRF format) of 28 nM.
`C[C@H]1CNCCN1S(=O)(=O)c1ccccc1-c1ccc(-c2cnc(N)cn2)c(F)c1` [Example 144, (S)-5-(3-Fluoro-2′-((2-methylpiperazin-1-yl)sulfonyl)-[1,1′-biphenyl]-4-yl)pyrazin-2-amine]: the IC50 in assay [1] (setting [3]) amounted to 97 nM. This compound also yielded a Ki at human FLAP (setting [4]) of 15 nM.
Turning to `C[C@@H]([C@@H](O)c1ccccc1)N(C)S(=O)(=O)c1ccccc1-c1ccc(-c2cnc(N)c(F)c2)c(F)c1` [Example 669, 4′-(6-Amino-5-fluoropyridin-3-yl)-3′-fluoro-N-((1S,2S)-1-hydroxy-1-phenylpropan-2-yl)-N-methyl-[1,1′-biphenyl]-2-sulfonamide], in assay [1] (setting [2]), the IC50 was determined as 106 nM. The compound further registered a Ki at human FLAP (wild type FLAP, HTRF format) of 4 nM.
As for `CN(c1ccccc1-c1ccc(-c2cnc3[nH]ccc3n2)c(F)c1)S(C)(=O)=O` [Example 492, N-[3′-Fluoro-4′-(5H-pyrrolo[2,3-b]pyrazin-2-yl)biphenyl-2-yl]-N-methylmethanesulfonamide], the IC50 in assay [1] (setting [2]) came to 155 nM. Moreover, the affinity at human FLAP (wild type FLAP, HTRF format) corresponds to a Ki of 15 nM.
Consider `CC(C)(C)NS(=O)(=O)c1ccccc1-c1ccc(-c2cnc3[nH]cnc3c2)c(F)c1` [Example 432, N-tert-Butyl-3′-fluoro-4′-(3H-imidazo[4,5-b]pyridin-6-yl)biphenyl-2-sulfonamide], for which the IC50 in assay [1] (setting [2]) amounted to 19 nM. The Ki at human FLAP (wild type FLAP, HTRF format) is 4 nM.
In the case of `Nc1cnc(-c2ccc(-c3ccccc3S(=O)(=O)N[C@H]3CCNC3)cc2F)cn1` [Example 154, (S)-4′-(5-Aminopyrazin-2-yl)-3′-fluoro-N-(pyrrolidin-3-yl)-[1,1′-biphenyl]-2-sulfonamide], the IC50 in assay [1] (setting [3]) turned out to be 1040 nM. In addition, on human FLAP (setting [4]), the affinity, expressed as Ki, was 29 nM.
For `Nc1ccnc(Oc2cc(C(F)(F)F)ccc2-c2ccc(-c3cnc(N)nc3)c(F)c2)n1` [Example 559, 5-{2′-[(4-Aminopyrimidin-2-yl)oxy]-3-fluoro-4′-(trifluoromethyl)biphenyl-4-yl}pyrimidin-2-amine], the IC50 in assay [1] (setting [2]) stood at 55 nM. This compound returned a Ki at human FLAP (wild type FLAP, HTRF format) of 2 nM.
Regarding `CC(C)(NS(=O)(=O)c1ccccc1-c1ccc(-c2cnc(N)nc2)c(F)c1)C(F)(F)F` [Example 296, 4′-(2-Aminopyrimidin-5-yl)-3′-fluoro-N-(2,2,2-trifluoro-1,1-dimethylethyl)biphenyl-2-sulfonamide trifluoroacetic acid salt], in assay [1] (setting [3]), the IC50 was 66 nM. Besides, affinity on human FLAP (setting [4]) was put at a Ki of 5 nM.
For `CN1CCN(S(=O)(=O)c2cc(C(F)(F)F)ccc2-c2ccc(-c3cnc(N)nc3)c(F)c2)CC1` [Example 328, 5-{3-Fluoro-2′-[(4-methylpiperazin-1-yl)sulfonyl]-4′-(trifluoromethyl)biphenyl-4-yl}pyrimidin-2-amine], the IC50 in assay [1] (setting [3]) came out at 119 nM. The affinity at human FLAP (setting [4]) corresponds to a Ki of 15 nM.
On to `Nc1cnc(-c2ccc(-c3ccccc3S(=O)(=O)NC3CCCC3)cc2F)cn1` [Example 14, 4′-(5-Aminopyrazin-2-yl)-N-cyclopentyl-3′-fluorobiphenyl-2-sulfonamide], for which the IC50 in assay [1] (setting [3]) was found to be 32 nM. Also, on human FLAP (setting [4]), affinity was put at a Ki of 3 nM.
